Like-named read-outs stand apart in the source and are kept apart here.

For one assay, the target named is human CB2 receptors (Homo sapiens (Human), UniProt P34972). Nature of the assay: functional cAMP assay, CHO cells expressing human CB2. In kind it is cell-based. On the procedure:
(§1) CHO cells expressing human CB1 or CB2 receptors are seeded 17-24 hours prior to the experiment 50.000 cells per well in a black 96 well plate with flat clear bottom (Corning Costar #3904) in DMEM (Invitrogen No. 31331), 1×HT supplement, with 10% fetal calf serum and incubated at 5% CO2 and 37° C. in a humidified incubator. The growth medium was exchanged with Krebs Ringer Bicarbonate buffer with 1 mM IBMX and incubated at 30° C. for 30 min. Compounds were added to a final assay volume of 100 μl and incubated for 30 min at 30° C. Using the cAMP-Nano-TRF detection kit the assay (Roche Diagnostics) was stopped by the addition of 50 μl lysis reagent (Tris, NaCl, 1.5% Triton X100, 2.5% NP40, 10% NaN3) and 50 μl detection solutions (20 μM mAb Alexa700-cAMP 1:1, and 48 μM Ruthenium-2-AHA-cAMP) and shaken for 2 h at room temperature. The time-resolved energy transfer is measured by a TRF reader (Evotec Technologies GmbH), equipped with a ND:YAG laser as excitation source. The plate is measured twice with the excitation at 355 nm and at the emission with a delay of 100 ns and a gate of 100 ns, total exposure time 10 s at 730 (bandwidth 30 nm) or 645 nm (bandwidth 75 nm), respectively. The FRET signal is calculated as follows: FRET=T730-Alexa730-P(T645-B645) with P=Ru730-B730/Ru645-B645, where T730 is the test well measured at 730 nM, T645 is the test well measured at 645 nm, B730 and B645 are the buffer controls at 730 nm and 645 nm, respectively. cAMP content is determined from the function of a standard curve spanning from 10 μM to 0.13 nM cAMP.
(§2) EC50 values were determined using Activity Base analysis (ID Business Solution, Limited). The EC50 values for a wide range of cannabinoid agonists generated from this assay were in agreement with the values published in the scientific literature.
Background: cAMP levels reflect the balance of adenylyl cyclase and phosphodiesterase activity.

The next assay has as its target human CB1 receptors (Homo sapiens (Human), UniProt P21554). Nature of the assay: functional cAMP assay, CHO cells expressing human CB1. Format: cell-based. On the procedure: as §1, §2
Where [1] appears, read: functional cAMP assay, CHO cells expressing human CB1; read-out: Human CB1 EC50.
[2] abbreviates: read-out: Human CB1 EC50; functional cAMP assay, CHO cells expressing human CB1.
The mark [3] stands for this setting: Human CB1 EC50 (uM), functional cAMP assay, CHO cells expressing human CB1.

Sequence of human CB2 receptors (P34972 whole entry): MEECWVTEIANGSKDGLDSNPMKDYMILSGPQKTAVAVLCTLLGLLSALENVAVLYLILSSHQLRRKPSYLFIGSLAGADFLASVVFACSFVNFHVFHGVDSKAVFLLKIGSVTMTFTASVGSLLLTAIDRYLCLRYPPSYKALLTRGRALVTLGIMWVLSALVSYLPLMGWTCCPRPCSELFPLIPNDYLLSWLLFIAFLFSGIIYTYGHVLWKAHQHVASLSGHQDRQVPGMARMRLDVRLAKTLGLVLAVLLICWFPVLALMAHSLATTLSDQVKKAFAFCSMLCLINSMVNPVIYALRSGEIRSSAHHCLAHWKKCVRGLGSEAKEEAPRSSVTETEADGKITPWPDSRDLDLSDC
Sequence of human CB1 receptors (P21554 whole entry): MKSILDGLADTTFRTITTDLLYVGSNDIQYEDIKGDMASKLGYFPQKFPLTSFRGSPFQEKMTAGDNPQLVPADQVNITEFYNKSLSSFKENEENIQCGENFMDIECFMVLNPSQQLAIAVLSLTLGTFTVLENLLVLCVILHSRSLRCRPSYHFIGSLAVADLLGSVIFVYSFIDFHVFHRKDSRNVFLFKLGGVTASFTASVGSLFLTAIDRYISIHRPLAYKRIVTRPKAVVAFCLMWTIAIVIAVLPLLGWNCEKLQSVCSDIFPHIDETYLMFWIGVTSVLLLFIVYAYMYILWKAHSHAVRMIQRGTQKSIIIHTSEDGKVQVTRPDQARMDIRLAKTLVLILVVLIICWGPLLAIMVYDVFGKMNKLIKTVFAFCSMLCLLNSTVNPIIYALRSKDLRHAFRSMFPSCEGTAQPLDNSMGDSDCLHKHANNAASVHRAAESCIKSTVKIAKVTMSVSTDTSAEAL

The EC50 is the concentration needed to bring the measured effect to its halfway point. Turning to `CNC(=O)[C@@H](NC(=O)c1cc(O[C@@H](C)C(F)(F)F)c(C2(F)COC2)cn1)C(C)(C)C` [Example 172, N-[(2S)-3,3-dimethyl-1-(methylamino)-1-oxobutan-2-yl]-5-(3-fluorooxetan-3-yl)-4-[(2S)-1,1,1-trifluoropropan-2-yl]oxypyridine-2-carboxamide], the figures for the EC50 at human CB2 receptors (read-out: Human CB2 EC50) and at human CB1 receptors (setting [1]) were 0.0329 µM and over 10 µM, respectively.
The matching figures for `CCC[C@@](C)(CO)NC(=O)c1cc(OCC2CC2)c(Cl)cn1` [Example 37, (−)-5-Chloro-4-cyclopropylmethoxy-pyridine-2-carboxylic acid (1-hydroxymethyl-1-methyl-butyl)-amide]: 0.0167 µM and over 10 µM.
The corresponding values for `Cc1nc(C(NC(=O)c2cc(O[C@@H](C)C(F)(F)F)c(C3CC3)cn2)C(C)(C)C)no1` (stereo partly drawn) [Example 221, 5-cyclopropyl-N-[2,2-dimethyl-1-(5-methyl-1,2,4-oxadiazol-3-yl)propyl]-4-[(2S)-1,1,1-trifluoropropan-2-yl]oxypyridine-2-carboxamide] are 0.0084 µM and over 10 µM.
For `Cc1cnc(C(C)(CC2CC2)NC(=O)c2cc(OCC(F)(F)F)c(C3CC3)cn2)s1` (stereo not shown) [Example 177, 5-cyclopropyl-N-[1-cyclopropyl-2-(5-methyl-1,3-thiazol-2-yl)propan-2-yl]-4-(2,2,2-trifluoroethoxy)pyridine-2-carboxamide], the EC50 on human CB2 receptors (read-out: Human CB2 EC50) was 0.0124 µM; on human CB1 receptors (setting [1]) it was over 10 µM.
The matching figures for `COC(=O)C(C)(C)NC(=O)c1cc(I)c(Cl)cn1` [Example 1, 2-[(5-Chloro-4-iodo-pyridine-2-carbonyl)-amino]-2-methyl-propionic acid methyl ester]: 0.0356 µM and over 10 µM.
The matching figures for `O=C(N[C@H](c1ccccn1)C(F)(F)F)c1cc(OCC2CC2)c(Cl)cn1` [Example 16, (+)-5-Chloro-4-cyclopropylmethoxy-pyridine-2-carboxylic acid (2,2,2-trifluoro-1-pyridin-2-yl-ethyl)-amide]: 0.0031 µM and 0.815 µM.
Regarding `CNC(=O)CC(C)(NC(=O)c1cc(O[C@@H](C)C(F)(F)F)c(C2CC2)cn1)C1CC1` (stereo partly drawn) [Example 249, 5-cyclopropyl-N-[2-cyclopropyl-4-(methylamino)-4-oxobutan-2-yl]-4-[(2S)-1,1,1-trifluoropropan-2-yl]oxypyridine-2-carboxamide], the half-maximal effective concentration (EC50) on human CB2 receptors (read-out: Human CB2 EC50) was 0.001 µM; on human CB1 receptors (setting [1]), over 10 µM.
The corresponding values for `C[C@H](Oc1cc(C(=O)NC2(CC(N)=O)COC2)ncc1C1CC1)C(F)(F)F` [Example 64, 5-Cyclopropyl-4-((S)-2,2,2-trifluoro-1-methyl-ethoxy)-pyridine-2-carboxylic acid (3-carbamoylmethyl-oxetan-3-yl)-amide] are 0.515 µM and over 10 µM.
The matching figures for `O=C(NC1(CO)CCCC1)c1cc(OCC2CC2)c(Cl)cn1` [Example 6, 5-Chloro-4-cyclopropylmethoxy-pyridine-2-carboxylic acid (1-hydroxymethyl-cyclopentyl)-amide]: 0.0524 µM and over 10 µM.
With `Cc1nc(C(C)(CC2CC2)NC(=O)c2cc(OC(C)CF)c(C3CC3)cn2)no1` (single isomer, unassigned) [Example 288, 5-cyclopropyl-N-(1-cyclopropyl-2-(5-methyl-1,2,4-oxadiazol-3-yl)propan-2-yl)-4-(1-fluoropropan-2-yloxy)picolinamide], the EC50 was 0.0008 µM at human CB2 receptors (Human CB2 EC50 (uM)) and over 10 µM on human CB1 receptors (setting [2]).
Take `CC(C)C[C@H](NC(=O)c1cc(OCC2CC2)c(Br)cn1)C(N)=O` [Example 9, 5-Bromo-4-cyclopropylmethoxy-pyridine-2-carboxylic acid ((S)-1-carbamoyl-3-methyl-butyl)-amide]: the EC50 was 0.0329 µM on human CB2 receptors (read-out: Human CB2 EC50) and over 10 µM on human CB1 receptors (setting [1]).
As to `C[C@H](Oc1cc(C(=O)NC(C(=O)N2CCC23COC3)C(C)(C)C)ncc1C1CC1)C(F)(F)F` (stereo partly drawn) [Example 204, 5-cyclopropyl-N-[3,3-dimethyl-1-(6-oxa-1-azaspiro[3.3]heptan-1-yl)-1-oxobutan-2-yl]-4-[(2S)-1,1,1-trifluoropropan-2-yl]oxypyridine-2-carboxamide], the EC50 was 0.0646 µM on human CB2 receptors (read-out: Human CB2 EC50) and over 10 µM on human CB1 receptors (setting [1]).
Turning to `Cn1nnc(C(NC(=O)c2cc(OCC(F)(F)F)c(C3CC3)cn2)C(C)(C)C)n1` (single isomer, unassigned) [Example 209, 5-cyclopropyl-N-[2,2-dimethyl-1-(2-methyltetrazol-5-yl)propyl]-4-(2,2,2-trifluoroethoxy)pyridine-2-carboxamide], the EC50 was 0.0048 µM on human CB2 receptors (Human CB2 EC50 (uM)) and over 10 µM on human CB1 receptors (setting [3]).
Turning to `NC(=O)[C@@H]1CC(F)(F)CN1C(=O)c1cc(OCC2CC2)c(C2CC2)cn1` [Example 114, (2S)-1-[5-cyclopropyl-4-(cyclopropylmethoxy)pyridine-2-carbonyl]-4,4-difluoropyrrolidine-2-carboxamide], the EC50 was 1 µM on human CB2 receptors (read-out: Human CB2 EC50) and over 10 µM on human CB1 receptors (setting [1]).
The matching figures for `NC(=O)CC1(NC(=O)c2cc(OCC(F)(F)F)c(C3(F)CCC3)cn2)CS(=O)(=O)C1` [Example 286, N-[3-(2-amino-2-oxoethyl)-1,1-dioxothietan-3-yl]-5-(1-fluorocyclobutyl)-4-(2,2,2-trifluoroethoxy)pyridine-2-carboxamide]: 0.0459 µM and over 10 µM.
The matching figures for `CCC(C)(NC(=O)c1cc(OCC(F)(F)F)c(C2CC2)cn1)C(N)=O` (stereo not shown) [Example 77, 5-Cyclopropyl-4-(2,2,2-trifluoro-ethoxy)-pyridine-2-carboxylic acid (1-carbamoyl-1-methyl-propyl)-amide]: 0.137 µM and over 10 µM.
Turning to `Cc1nc([C@@](C)(CC2CC2)NC(=O)c2cc(OCC(F)(F)F)c(Cl)cn2)no1` (single isomer, unassigned) [Example 93, 5-Chloro-4-(2,2,2-trifluoro-ethoxy)-pyridine-2-carboxylic acid [2-cyclopropyl-1-methyl-1-(5-methyl-[1,2,4]oxadiazol-3-yl)-ethyl]-amide], the half-maximal effective concentration (EC50) at human CB2 receptors (Human CB2 EC50 (uM)) is 0.0651 µM; at human CB1 receptors (setting [3]) it was over 10 µM.
As for `CNC(=O)[C@H](C)C(C)(C)NC(=O)c1cc(OCC2CC2)c(Cl)cn1` [Example 35, (+)-5-Chloro-4-cyclopropylmethoxy-pyridine-2-carboxylic acid (1,1-dimethyl-2-methylcarbamoyl-propyl)-amide], the EC50 on human CB2 receptors (read-out: Human CB2 EC50) is 0.143 µM; at human CB1 receptors (setting [1]), over 10 µM.
The corresponding values for `C[C@@H](Oc1cc(C(=O)NC2(CC(N)=O)COC2)ncc1C1CC1)C(F)(F)F` [Example 63, 5-Cyclopropyl-4-((R)-2,2,2-trifluoro-1-methyl-ethoxy)-pyridine-2-carboxylic acid (3-carbamoylmethyl-oxetan-3-yl)-amide] are 0.283 µM and over 10 µM.
`CCCC(C)(CO)NC(=O)c1cc(OCC2CC2)c(Cl)cn1` (stereo not shown) [Example 33, 5-Chloro-4-cyclopropylmethoxy-pyridine-2-carboxylic acid (1-hydroxymethyl-1-methyl-butyl)-amide]: the results for the EC50 at human CB2 receptors (read-out: Human CB2 EC50) and on human CB1 receptors (setting [1]) were 0.0244 µM and over 10 µM, respectively.
The matching figures for `CC(C)(C)C(NC(=O)c1cc(OCC(F)(F)F)c(C2CC2)cn1)C(=O)N1CC(F)(F)C1` (stereo not shown) [Example 197, 5-cyclopropyl-N-[1-(3,3-difluoroazetidin-1-yl)-3,3-dimethyl-1-oxobutan-2-yl]-4-(2,2,2-trifluoroethoxy)pyridine-2-carboxamide]: 0.0076 µM and over 10 µM.
For `Cc1nc(C(C)(CS(C)(=O)=O)NC(=O)c2cc(OCC(F)(F)F)c(C3(F)COC3)cn2)no1` (single isomer, unassigned) [Example 133, 5-(3-fluorooxetan-3-yl)-N-[2-(5-methyl-1,2,4-oxadiazol-3-yl)-1-methylsulfonylpropan-2-yl]-4-(2,2,2-trifluoroethoxy)pyridine-2-carboxamide], the results for the EC50 on human CB2 receptors (read-out: Human CB2 EC50) and at human CB1 receptors (setting [2]) were 0.568 µM and over 10 µM, respectively.
Take `Cc1nc(C(C)(CC2CC2)NC(=O)c2cc(OCC(F)(F)F)c(C3(F)COC3)cn2)no1` (single isomer, unassigned) [Example 136, N-[1-cyclopropyl-2-(5-methyl-1,2,4-oxadiazol-3-yl)propan-2-yl]-5-(3-fluorooxetan-3-yl)-4-(2,2,2-trifluoroethoxy)pyridine-2-carboxamide]: the EC50 is 0.125 µM at human CB2 receptors (Human CB2 EC50 (uM)) and over 10 µM at human CB1 receptors (setting [2]).

For the origin of these results see US9409866B2, “Pyridine-2-amides useful as CB2 agonists” (Hoffmann-La Roche Inc., priority 2012, dated 2016).
